Experimental data as given in patent publication US11306066B2, “4H-pyran compounds as insulin-regulated aminopeptidase (IRAP) inhibitors” (Monash University, priority 2015, dated 2022).
Read-outs that look alike come from different tables or passages of the source.

Target: T1, recombinant IRAP (Homo sapiens, UniProt Q9UIQ6)
T1 construct: expressed in transfected cells; host or cells: HEK 293T
Test: IRAP enzymatic assay (hydrolysis of Leu-MCA)
Format: biochemical
Conditions: for Ki: calculated from IC50, substrate Leu-MCA; for IC50: substrate Leu-MCA
Description: An in vitro enzymatic assay was used to initially assess IRAP inhibitory activity.
Crude membranes were prepared from HEK 293T cells transfected with IRAP or empty vector, then solubilized in buffer consisting of 50 mM Tris-HCl, 1% Triton X-100, pH 7.4 at 4° C. under agitation over 5 h. After solubilization, the membranes were pelleted by centrifugation at 23,100 g for 15 min at 4° C., and the supernatant was reserved as the source of IRAP activity. The enzymatic activities of recombinant IRAP were determined by the hydrolysis of the synthetic substrate Leu-MCA (Sigma-Aldrich, Missouri, USA) monitored by the release of a fluorogenic product, MCA, at excitation and emission wavelengths of 380 and 440 nm, respectively. Assays were performed in 96-well plates; each well contains between 0.2-10 μg solubilized membrane protein, a range of concentration of substrate in a final volume of 100 μL 50 mM Tris-HCl buffer (pH 7.4). Non-specific hydrolysis of the substrate was corrected by subtracting the emission from incubations with membranes transfected with empty vector. Reactions proceeded at 37° C. for 30 min within a thermostatted FLEX station fluorescence microplate reader (Molecular Devices, Sunnyvale, Calif.). The kinetic parameters (Km and V) were determined by non-linear fitting of the Michaelis-Menten equation (GraphPad Prism, GraphPad Software Inc., CA, USA); final concentrations of Leu-MCA of 15.6 μM-1 mM. Inhibitor constants (Ki) for the competitive inhibitors were calculated from the relationship IC50=[…], where IC50 values were determined over a range of inhibitor concentrations (10^−9 to 10^−4 M). Km values of IRAP for Leu-MCA were determined from the kinetic studies. Binding affinities of the compounds to IRAP were examined by monitoring the inhibition of the hydrolysis of Leu-MCA in the presence of increasing concentrations of the compounds (10^−8 to 10^−3 M). All data obtained were from at least three separate experiments performed in duplicate.
The results for some compounds of Formula (I) are set out below in Tables 2-1 to 2-8. The compounds were obtained commercially (Specs, Interbioscreen Ltd and Chembridge Corporation) or prepared according to the procedures outlined above.

T1 sequence (Q9UIQ6 whole entry): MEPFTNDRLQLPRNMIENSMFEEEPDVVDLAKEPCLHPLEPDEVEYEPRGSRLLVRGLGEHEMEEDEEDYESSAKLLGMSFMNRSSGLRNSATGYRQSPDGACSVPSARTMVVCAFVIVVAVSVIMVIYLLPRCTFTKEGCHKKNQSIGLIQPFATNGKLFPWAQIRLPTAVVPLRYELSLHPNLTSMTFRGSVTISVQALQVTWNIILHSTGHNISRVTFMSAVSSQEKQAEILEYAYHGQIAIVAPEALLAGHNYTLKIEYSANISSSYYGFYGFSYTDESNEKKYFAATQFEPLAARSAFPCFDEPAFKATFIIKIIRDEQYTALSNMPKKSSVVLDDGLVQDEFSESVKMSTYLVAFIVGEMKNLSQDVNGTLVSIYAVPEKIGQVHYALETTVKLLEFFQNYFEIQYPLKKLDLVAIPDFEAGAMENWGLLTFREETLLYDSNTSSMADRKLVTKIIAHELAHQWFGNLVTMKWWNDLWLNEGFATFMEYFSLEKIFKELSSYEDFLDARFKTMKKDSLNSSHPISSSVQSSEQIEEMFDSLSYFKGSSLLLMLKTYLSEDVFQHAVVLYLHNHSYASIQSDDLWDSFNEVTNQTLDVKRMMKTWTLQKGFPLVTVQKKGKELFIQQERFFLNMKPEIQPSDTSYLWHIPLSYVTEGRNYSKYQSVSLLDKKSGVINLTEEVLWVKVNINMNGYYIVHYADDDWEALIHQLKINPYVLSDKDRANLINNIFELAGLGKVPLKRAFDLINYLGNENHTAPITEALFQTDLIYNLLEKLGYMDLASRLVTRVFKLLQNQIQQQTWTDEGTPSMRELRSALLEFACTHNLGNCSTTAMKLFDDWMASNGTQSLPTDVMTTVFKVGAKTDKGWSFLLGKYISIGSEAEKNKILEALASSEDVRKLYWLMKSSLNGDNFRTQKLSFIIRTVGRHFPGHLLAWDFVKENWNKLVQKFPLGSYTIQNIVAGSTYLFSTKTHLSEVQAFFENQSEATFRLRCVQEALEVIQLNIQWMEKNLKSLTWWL

Question: What does the source list for CCOC(=O)C1=C(C)OC(N)=C(C#N)C1c1cc(Br)c(O)c(OC)c1 (stereo not shown) [Compound 11a]?
Answer: Ki (Table 2-1): 13.7 µM; IC50 (Table 2-1, read-out: IC50): 23 µM

Question: For CCOC(=O)C1=C(C)OC(N)=C(C#N)C1c1ccc(O)c(OC)c1 (stereo not shown) [Compound 11b], which Ki (Table 2-1) is on record?
Answer: 13.1 µM

Question: What about the IC50 (Table 2-1, read-out: IC50) of the same compound?
Answer: 22 µM

Question: What does the source list for CCOC(=O)C1=C(C)OC(N)=C(C#N)C1c1ccc(O)cc1 (stereo not shown) [Compound 11e]?
Answer: Ki (Table 2-1): 61.3 µM; IC50 (Table 2-1, read-out: IC50): 103 µM

Question: With CCOC(=O)C1=C(C)OC(N)=C(C#N)C1c1ccc2c(c1)OCO2 (stereo not shown) [Compound 11g] as the compound, how does the IC50 (Table 2-1, read-out: IC50) read?
Answer: > 50 µM

Question: What does the source list for CCOC(=O)C1=C(C)OC(N)=C(C#N)C1c1cc(OC)c2c(c1)OCO2 (stereo not shown) [Compound 11h]?
Answer: Ki (Table 2-1): 37.5 µM; IC50 (Table 2-1, read-out: IC50): 63 µM

Question: CCOC(=O)C1=C(C)OC(N)=C(C#N)C1c1ccc(OC)c(OC)c1 (stereo not shown) [Compound 11i] was tested. Which IC50 (Table 2-1, read-out: IC50) did it give?
Answer: > 50 µM

Question: Which IC50 (Table 2-1, read-out: IC50) does the source give for CCOC(=O)C1=C(C)OC(N)=C(C#N)C1c1ccc(C#N)cc1 (stereo not shown) [Compound 11j] here?
Answer: > 100 µM

Question: With CCOC(=O)C1=C(C)OC(N)=C(C#N)C1c1ccc(C(=O)O)cc1 (stereo not shown) [Compound 11k, 4-(2-Amino-3-cyano-5-(ethoxycarbonyl)-6-methyl-4H-pyran-4-yl)benzoic Acid] as the compound, how does the Ki (Table 2-1) read?
Answer: 18.4 µM

Question: And the IC50 (Table 2-1, read-out: IC50)?
Answer: 31 µM

Question: For CCOC(=O)C1=C(C)OC(N)=C(C#N)C1c1ccc([N+](=O)[O-])cc1 (stereo not shown) [Compound 11l], which IC50 (Table 2-1, read-out: IC50) is on record?
Answer: > 100 µM

Question: For CCOC(=O)C1=C(C)OC(N)=C(C#N)C1c1cccc(C(=O)O)c1 (stereo not shown) [Compound 11m, 3-(2-Amino-3-cyano-5-(ethoxycarbonyl)-6-methyl-4H-pyran-4-yl)benzoic Acid], which IC50 (Table 2-1, read-out: IC50) is on record?
Answer: > 100 µM

Question: How did the IC50 (Table 2-1, read-out: IC50) turn out when CCOC(=O)C1=C(C)OC(N)=C(C#N)C1c1ccc(OC(C)=O)c(C)c1 (stereo not shown) [Compound 11n, Ethyl 4-(4-acetoxy-3-methylphenyl)-6-amino-5-cyano-2-methyl-4H-pyran-3-carboxylate] was run?
Answer: > 100 µM

Question: How did the IC50 (Table 2-1, read-out: IC50) turn out when CCOC(=O)C1=C(C)OC(N)=C(C#N)C1c1cc(C)c(OC(C)=O)c(C)c1 (stereo not shown) [Compound 11o, Ethyl 4-(4-acetoxy-3,5-dimethylphenyl)-6-amino-5-cyano-2-methyl-4H-pyran-3-carboxylate] was run?
Answer: > 100 µM

Question: Which IC50 (Table 2-1, read-out: IC50) does the source give for CCOC(=O)C1=C(C)OC(N)=C(C#N)C1c1ccc(-c2ccccn2)cc1 (stereo not shown) [Compound 11p, Ethyl 6-amino-5-cyano-2-methyl-4-(4-(pyridin-2-yl)phenyl)-4H-pyran-3-carboxylate] here?
Answer: > 100 µM

Question: CCOC(=O)C1=C(C)OC(N)=C(C#N)C1c1cccnc1 (stereo not shown) [Compound 11q] was tested. Which IC50 (Table 2-1, read-out: IC50) did it give?
Answer: > 50 µM

Question: How did the IC50 (Table 2-1, read-out: IC50) turn out when CCOC(=O)C1=C(C)OC(N)=C(C#N)C1c1ccncc1 (stereo not shown) [Compound 11r] was run?
Answer: > 100 µM

Question: CCOC(=O)C1=C(C)OC(N)=C(C#N)C1c1ccc2ccccc2n1 (stereo not shown) [Compound 11s, Ethyl 6-amino-5-cyano-2-methyl-4-(quinolin-2-yl)-4H-pyran-3-carboxylate] was tested. Which IC50 (Table 2-1, read-out: IC50) did it give?
Answer: 3 to 40 µM

Question: For CCOC(=O)C1=C(C)OC(N)=C(C#N)C1c1cnc2ccccc2c1 (stereo not shown) [Compound 11t, Ethyl 6-amino-5-cyano-2-methyl-4-(quinolin-3-yl)-4H-pyran-3-carboxylate], which IC50 (Table 2-1, read-out: IC50) is on record?
Answer: > 100 µM

Question: With CCOC(=O)C1=C(C)OC(N)=C(C#N)C1c1ccnc2ccccc12 (stereo not shown) [Compound 11u, Ethyl 6-amino-5-cyano-2-methyl-4-(quinolin-4-yl)-4H-pyran-3-carboxylate] as the compound, how does the IC50 (Table 2-1, read-out: IC50) read?
Answer: > 100 µM

Question: CCOC(=O)C1=C(CC)OC(N)=C(C#N)C1c1ccc(O)c(OC)c1 (stereo not shown) [Compound 12a] was tested. Which Ki (Table 2-2) did it give?
Answer: 85.1 µM

Question: And the IC50 (Table 2-2, read-out: IC50)?
Answer: 143 µM

Question: CCOC(=O)C1=C(CC)OC(N)=C(C#N)C1c1ccc(O)c(OCC)c1 (stereo not shown) [Compound 12c] was tested. Which Ki (Table 2-2) did it give?
Answer: 67.2 µM

Question: What about the IC50 (Table 2-2, read-out: IC50) of the same compound?
Answer: 113 µM

Question: With COC(=O)C1=C(C)OC(N)=C(C#N)C1c1ccc(C(=O)O)cc1 (stereo not shown) [Compound 13b, 4-(2-Amino-3-cyano-5-(methoxycarbonyl)-6-methyl-4H-pyran-4-yl)benzoic Acid] as the compound, how does the Ki (Table 2-3) read?
Answer: 8.3 µM

Question: And the IC50 (Table 2-3, read-out: IC50)?
Answer: 14 µM

Question: With COC(=O)C1=C(C)OC(N)=C(C#N)C1c1ccc(O)cc1 (stereo not shown) [Compound 13c] as the compound, how does the IC50 (Table 2-3, read-out: IC50) read?
Answer: > 100 µM

Question: For COC(=O)C1=C(C)OC(N)=C(C#N)C1c1ccc(O)c(OC)c1 (stereo not shown) [Compound 13d], which Ki (Table 2-3) is on record?
Answer: 8.3 µM

Question: What about the IC50 (Table 2-3, read-out: IC50) of the same compound?
Answer: 14 µM

Question: What does the source list for COc1ccc(C2C(C#N)=C(N)OC(C)=C2C(=O)OCc2ccccc2)cc1OC (stereo not shown) [Compound 14a]?
Answer: Ki (Table 2-4): 16.7 µM; IC50 (Table 2-4, read-out: IC50): 28 µM

Question: With CC1=C(C(=O)OCc2ccccc2)C(c2ccc(C(=O)O)cc2)C(C#N)=C(N)O1 (stereo not shown) [Compound 14b, 4-(2-Amino-5-(benzyloxycarbonyl)-3-cyano-6-methyl-4H-pyran-4-yl)benzoic Acid] as the compound, how does the Ki (Table 2-4) read?
Answer: 3 µM

Question: And the IC50 (Table 2-4, read-out: IC50)?
Answer: 5 µM

Question: Which IC50 (Table 2-4, read-out: IC50) does the source give for COC(=O)c1ccc(C2C(C#N)=C(N)OC(C)=C2C(=O)OCc2ccccc2)cc1 (stereo not shown) [Compound 14c] here?
Answer: 10 to 100 µM

Question: For CC1=C(C(=O)OCc2ccccc2)C(c2ccc(C#N)cc2)C(C#N)=C(N)O1 (stereo not shown) [Compound 14d, Benzyl 6-amino-5-cyano-4-(4-cyanophenyl)-2-methyl-4H-pyran-3-carboxylate], which IC50 (Table 2-4, read-out: IC50) is on record?
Answer: > 100 µM

Question: CC(=O)C1=C(C)OC(N)=C(C#N)C1c1ccc(C(=O)O)cc1 (stereo not shown) [Compound 15a, 4-(3-Acetyl-6-amino-5-cyano-2-methyl-4H-pyran-4-yl)benzoic Acid] was tested. Which Ki (Table 2-5) did it give?
Answer: 1.8 µM

Question: What about the IC50 (Table 2-5, read-out: IC50) of the same compound?
Answer: 2 to 4 µM

Question: How did the Ki (Table 2-5) turn out when CC(=O)C1=C(C)OC(N)=C(C#N)C1c1cccc(C(=O)O)c1 (stereo not shown) [Compound 15b, 3-(3-Acetyl-6-amino-5-cyano-2-methyl-4H-pyran-4-yl)benzoic Acid] was run?
Answer: 3.9 µM

Question: And the IC50 (Table 2-5, read-out: IC50)?
Answer: 6 to 7 µM

Question: Which results are given for COc1cc(C2C(C#N)=C(N)OC(C)=C2C(C)=O)ccc1O (stereo not shown) [Compound 15c]?
Answer: Ki (Table 2-5): 16.7 µM; IC50 (Table 2-5, read-out: IC50): 28 µM

Question: CC(=O)C1=C(C)OC(N)=C(C#N)C1c1ccc(C#N)cc1 (stereo not shown) [Compound 15d] was tested. Which Ki (Table 2-5) did it give?
Answer: 59.5 µM

Question: Which Ki (Table 2-5) does the source give for CC(=O)C1=C(C)OC(N)=C(C#N)C1c1ccc2ccccc2n1 (stereo not shown) [Compound 15i, 5-Acetyl-2-amino-6-methyl-4-(quinolin-2-yl)-4H-pyran-3-carbonitrile] here?
Answer: 10.1 µM

Question: And the IC50 (Table 2-5, read-out: IC50)?
Answer: 17 µM

Question: Which IC50 (Table 2-5, read-out: IC50) does the source give for CC(=O)C1=C(C)OC(N)=C(C#N)C1c1ccc2nccnc2c1 (stereo not shown) [Compound 15j, 5-Acetyl-2-amino-6-methyl-4-(quinoxalin-6-yl)-4H-pyran-3-carbonitrile] here?
Answer: > 100 µM

Question: CC(=O)NC1=C(C#N)C(c2ccc(C(=O)O)cc2)C(C(C)=O)=C(C)O1 (stereo not shown) [Compound 16, 4-(2-Acetamido-5-acetyl-3-cyano-6-methyl-4H-pyran-4-yl)benzoic Acid] was tested. Which Ki (Table 2-6) did it give?
Answer: 4.2 µM

Question: For CCOC(=O)C1=C(C)OC(N)=C(C(=O)OCC)C1c1ccc(C(=O)O)cc1 (stereo not shown) [Compound 17a, 4-(2-Amino-3,5-bis(ethoxycarbonyl)-6-methyl-4H-pyran-4-yl)benzoic Acid], which Ki (Table 2-7) is on record?
Answer: 4.2 µM

Question: What about the IC50 (Table 2-7, read-out: IC50) of the same compound?
Answer: 7 µM

Question: Which IC50 (Table 2-8, read-out: IC50 μ) does the source give for COc1cc(C2C(C#N)=C(N)Oc3cc(C)oc(=O)c32)cc(Br)c1O (stereo not shown) [Compound 18] here?
Answer: 40 µM
